# Reference: US20160115540A1, “PRODRUGS AND DRUGS” (Biogen MA Inc., priority 2013, published 2016)
# Where a name gives a salt, the structure may show the parent alone.
# Tests used:
# spleen = experiment: Transcriptional profiling, chronic dosing, EAE mice: spleen; assay type: in vivo; settings: for Number of differentially expressed genes identified: Spleen: EAE, Chronic Dosing
# Protocol: 2011 March 134(Pt3): 678-92. […] FIG. 17 depicts exemplary immunophenotyping panels used to analyze various immune cell populations (e.g., T cells, T regulatory cells, NK cells, B cells, myeloid cells). […] Animals were exposed to CO2 and whole blood collected via cardiac puncture. Two 100 μl aliquots of whole blood were collected in 1.5 mL microcentrifuge tubes and snap frozen in liquid nitrogen. Peripheral (liver, spleen, kidney and jejunum) and CNS brain (cerebellum, hippocampus, striatum and cortex) tissues were harvested and snap frozen in liquid nitrogen, with special care taken to collect tissues of similar size and from the same location. All samples were stored at -80° C. until RNA extraction was conducted. For RNA preparation, frozen tissues were placed in 2 mL RNAse-free 96-well blocks with 1.5 mL QIAzol Lysis Reagent (QIAgen) and a 3.2 mm stainless steel bead (BioSpec Products, Bartlesville, Okla.). Tissues were disrupted for four cycles of 45 seconds in a Mini-Beadbeater (Biospec Products). RNA was extracted in chloroform and the aqueous phase was mixed with an equal volume of 70% ethanol. Extracted RNA was applied to RNeasy 96 plates and purified by the spin method according to the manufacturer's protocol (RNeasy 96 Universal Tissue Protocol, QIAgen, Hilden Germany). […] Washing and staining of the hybridized arrays were completed as described in the GeneChip Expression analysis technical manual for HT plate arrays using the Genechip® Array Station (Affymetrix, Santa Clara, Calif.) with modifications as described in […] et al. The processed GeneChip® plate arrays were scanned using GeneTitan scanner (Affymetrix, Santa Clara, Calif.). Affymetrix scans were subject to quality control (QC) measures. These tests included a visual inspection of the distribution of raw signal intensities and an assessment of RNA degradation, relative log expression (RLE), and normalized unscaled standard error (NUSE). All sample scans that passed these QC metrics were included in the analysis. All CEL files were subjected to GC-content-based Robust Multi-array Average (GCRMA) normalization (version 2.20.0) (Irizarry R A, et al. Nucleic Acids Res 2003; 31:e15; Li C, et al. Genome Biol 2001; 2:[…]0032). […] Stat Appl Genet Mol Biol 2004; 3:Article3). […] Springer Science+Business Media 2005).
# brain = experiment: Transcriptional profiling, chronic dosing, EAE mice: brain; assay type: in vivo
# Excerpt: EAE induction is generally performed by immunization with brain extracts, CNS proteins (such as myelin basic protein), or peptides from such protein emulsified in an adjuvant such as complete Freund's adjuvant, e.g., as described in Linker et al., Brain. 2011 March 134(Pt3): 678-92. […] FIG. 17 depicts exemplary immunophenotyping panels used to analyze various immune cell populations (e.g., T cells, T regulatory cells, NK cells, B cells, myeloid cells). […] The number of independent mice whose tissues were harvested for transcript profiling studies and whose data passed QC is shown in TABLE 15. Animals were exposed to CO2 and whole blood collected via cardiac puncture. Two 100 μl aliquots of whole blood were collected in 1.5 mL microcentrifuge tubes and snap frozen in liquid nitrogen. Peripheral (liver, spleen, kidney and jejunum) and CNS brain (cerebellum, hippocampus, striatum and cortex) tissues were harvested and snap frozen in liquid nitrogen, with special care taken to collect tissues of similar size and from the same location. All samples were stored at -80° C. until RNA extraction was conducted. For RNA preparation, frozen tissues were placed in 2 mL RNAse-free 96-well blocks with 1.5 mL QIAzol Lysis Reagent (QIAgen) and a 3.2 mm stainless steel bead (BioSpec Products, Bartlesville, Okla.). Tissues were disrupted for four cycles of 45 seconds in a Mini-Beadbeater (Biospec Products). RNA was extracted in chloroform and the aqueous phase was mixed with an equal volume of 70% ethanol. Extracted RNA was applied to RNeasy 96 plates and purified by the spin method according to the manufacturer's protocol (RNeasy 96 Universal Tissue Protocol, QIAgen, Hilden Germany). […] Washing and staining of the hybridized arrays were completed as described in the GeneChip Expression analysis technical manual for HT plate arrays using the Genechip® Array Station (Affymetrix, Santa Clara, Calif.) with modifications as described in […] et al. The processed GeneChip® plate arrays were scanned using GeneTitan scanner (Affymetrix, Santa Clara, Calif.). Affymetrix scans were subject to quality control (QC) measures. These tests included a visual inspection of the distribution of raw signal intensities and an assessment of RNA degradation, relative log expression (RLE), and normalized unscaled standard error (NUSE). All sample scans that passed these QC metrics were included in the analysis. All CEL files were subjected to GC-content-based Robust Multi-array Average (GCRMA) normalization (version 2.20.0) (Irizarry R A, et al. Nucleic Acids Res 2003; 31:e15; Li C, et al. Genome Biol 2001; 2:[…]0032). […] Stat Appl Genet Mol Biol 2004; 3:Article3). […] Springer Science+Business Media 2005). Changes in gene expression were studied by applying a linear modeling approach to fit gene expression levels according to the defined groups of samples (e.g. DMF-, MMF-, and Vehicle-treated animals) and Bayesian posterior error analysis as implemented by Smyth (Smyth G K. Stat Appl Genet Mol Biol 2004; 3:Article3). The comparisons considered included: DMF-vs-MMF, DMF-vs-Vehicle, MMF-vs-Vehicle, and Vehicle-vs-Naïve.
# [1] = 100 mpk DMF-vs-90 mpk MMF, 7 h after last dosing
# [2] = 100 mpk DMF-vs-90 mpk MMF, 12 h after last dosing
# [3] = 100 mpk DMF-vs-Vehicle, 7 h after last dosing
# [4] = 100 mpk DMF-vs-Vehicle, 12 h after last dosing
# [5] = 90 mpk MMF-vs-Vehicle, 7 h after last dosing
# [6] = 90 mpk MMF-vs-Vehicle, 12 h after last dosing
smiles,measurement,setting,value
"COC(=O)/C=C/C(=O)OC [DMF, dimethyl fumarate]",Number of differentially expressed genes identified: Spleen,spleen; [1],3
same,Number of differentially expressed genes identified: Spleen,spleen; [2],4
same,Number of differentially expressed genes identified: Spleen,spleen; [3],12
same,Number of differentially expressed genes identified: Spleen,spleen; [4],7
same,FC Ear1 (1421802_PM_at),"spleen; spleen, 100DMF-vs-90MMF, 7 h",−3.57
same,FC Epx (1449136_PM_at),"spleen; spleen, 100DMF-vs-90MMF, 7 h",−3.20
same,FC Prg2 (1422873_PM_at),"spleen; spleen, 100DMF-vs-90MMF, 7 h",−2.10
same,FC Angptl4 (1417130_PM_s_at),"spleen; spleen, 100DMF-vs-90MMF, 12 h",1.97
same,FC Zbtb16 (1419874_PM_x_at),"spleen; spleen, 100DMF-vs-90MMF, 12 h",1.95
same,FC Zbtb16 (1442025_PM_a_at),"spleen; spleen, 100DMF-vs-90MMF, 12 h",2.29
same,FC Zbtb16 (1442026_PM_at),"spleen; spleen, 100DMF-vs-90MMF, 12 h",2.36
same,FC 4930519L02Rik (1454269_PM_s_at),"spleen; spleen, 100DMF-vs-Veh, 7 h",1.66
same,FC Adamts4 (1455965_PM_at),"spleen; spleen, 100DMF-vs-Veh, 7 h",−1.51
same,FC Aox1 (1419435_PM_at),"spleen; spleen, 100DMF-vs-Veh, 7 h",1.88
same,FC Gsta3 (1423436_PM_at),"spleen; spleen, 100DMF-vs-Veh, 7 h",2.02
same,FC Gsta3 (1423437_PM_at),"spleen; spleen, 100DMF-vs-Veh, 7 h",1.94
same,FC LOC677317 /// Me1 1416632_PM_at,"spleen; spleen, 100DMF-vs-Veh, 7 h",1.61
same,FC Nqo1 (1423627_PM_at),"spleen; spleen, 100DMF-vs-Veh, 7 h",2.27
same,FC Pir (1429001_PM_at),"spleen; spleen, 100DMF-vs-Veh, 7 h",2.74
same,FC Srxn1 (1419942_PM_at),"spleen; spleen, 100DMF-vs-Veh, 7 h",2.31
same,FC Srxn1 (1426875_PM_s_at),"spleen; spleen, 100DMF-vs-Veh, 7 h",2.29
same,FC Srxn1 (1451680_PM_at),"spleen; spleen, 100DMF-vs-Veh, 7 h",2.14
same,FC Steap4 (1425829_PM_a_at),"spleen; spleen, 100DMF-vs-Veh, 7 h",−1.88
same,FC Dbp (1418174_PM_at),"spleen; spleen, 100DMF-vs-Veh, 12 h",−1.65
same,FC Dbp (1438211_PM_s_at),"spleen; spleen, 100DMF-vs-Veh, 12 h",−1.78
same,FC Ighg (1424631_PM_a_at),"spleen; spleen, 100DMF-vs-Veh, 12 h",−1.52
same,FC Srxn1 (1419942_PM_at),"spleen; spleen, 100DMF-vs-Veh, 12 h",1.85
same,FC Srxn1 (1426875_PM_s_at),"spleen; spleen, 100DMF-vs-Veh, 12 h",1.90
same,FC Srxn1 (1451680_PM_at),"spleen; spleen, 100DMF-vs-Veh, 12 h",1.60
same,"Zbtb16 transcript signal, DMF-treated compared to MMF-treated animals","spleen; spleen, chronically dosed EAE mice, 12 h after final dosing",increased signal
same,Number of differentially expressed genes identified: Brain,brain; [1],31
same,Number of differentially expressed genes identified: Brain,brain; [2],0
same,Number of differentially expressed genes identified: Brain,brain; [3],6
same,Number of differentially expressed genes identified: Brain,brain; [4],0
"COC(=O)/C=C/C(=O)O [MMF, monomethyl fumarate]",Number of differentially expressed genes identified: Spleen,spleen; [5],23
same,Number of differentially expressed genes identified: Spleen,spleen; [6],9
same,FC 1441413_PM_at (no gene symbol),"spleen; spleen, 100MMF-vs-Veh, 7 h",1.54
same,FC 1451626_PM_x_at (no gene symbol),"spleen; spleen, 100MMF-vs-Veh, 7 h",1.55
same,FC 2810037O22Rik (1428866_PM_at),"spleen; spleen, 100MMF-vs-Veh, 7 h",−1.88
same,FC 4930519L02Rik (1454269_PM_s_at),"spleen; spleen, 100MMF-vs-Veh, 7 h",1.78
same,FC Aox1 (1419435_PM_at),"spleen; spleen, 100MMF-vs-Veh, 7 h",1.91
same,FC Cacnb3 (1448656_PM_at),"spleen; spleen, 100MMF-vs-Veh, 7 h",−1.58
same,FC Figf /// LOC100047108 (1438953_PM_at),"spleen; spleen, 100MMF-vs-Veh, 7 h",1.57
same,FC Gsta3 (1423436_PM_at),"spleen; spleen, 100MMF-vs-Veh, 7 h",1.74
same,FC Gsta3 (1423437_PM_at),"spleen; spleen, 100MMF-vs-Veh, 7 h",1.61
same,FC Higd1c /// Mettl7a1 /// Mettl7a2 1434150_PM_a_at,"spleen; spleen, 100MMF-vs-Veh, 7 h",1.57
same,FC Kcnh1 (1435994_PM_at),"spleen; spleen, 100MMF-vs-Veh, 7 h",−1.60
same,FC Lmcd1 1424596_PM_s_at,"spleen; spleen, 100MMF-vs-Veh, 7 h",−1.74
same,FC Mmp16 (1437568_PM_at),"spleen; spleen, 100MMF-vs-Veh, 7 h",−1.56
same,FC Nqo1 (1423627_PM_at),"spleen; spleen, 100MMF-vs-Veh, 7 h",2.35
same,FC Pdk4 (1417273_PM_at),"spleen; spleen, 100MMF-vs-Veh, 7 h",1.68
same,FC Pir (1429001_PM_at),"spleen; spleen, 100MMF-vs-Veh, 7 h",2.67
same,FC Socs3 (1416576_PM_at),"spleen; spleen, 100MMF-vs-Veh, 7 h",−1.79
same,FC Srxn1 (1419942_PM_at),"spleen; spleen, 100MMF-vs-Veh, 7 h",2.29
same,FC Srxn1 (1426875_PM_s_at),"spleen; spleen, 100MMF-vs-Veh, 7 h",2.26
same,FC Srxn1 (1451680_PM_at),"spleen; spleen, 100MMF-vs-Veh, 7 h",2.05
same,FC Steap4 (1425829_PM_a_at),"spleen; spleen, 100MMF-vs-Veh, 7 h",−1.91
same,FC Steap4 (1460197_PM_a_at),"spleen; spleen, 100MMF-vs-Veh, 7 h",−2.48
same,FC Txnrd1 (1424486_PM_a_at),"spleen; spleen, 100MMF-vs-Veh, 7 h",1.69
same,FC 2810037O22Rik (1428866_PM_at),"spleen; spleen, 100MMF-vs-Veh, 12 h",−1.55
same,FC Dbp (1418174_PM_at),"spleen; spleen, 100MMF-vs-Veh, 12 h",−1.85
same,FC Dbp (1438211_PM_s_at),"spleen; spleen, 100MMF-vs-Veh, 12 h",−1.90
same,FC Dclre1a (1432097_PM_a_at),"spleen; spleen, 100MMF-vs-Veh, 12 h",1.56
same,FC Nqo1 (1423627_PM_at),"spleen; spleen, 100MMF-vs-Veh, 12 h",2.05
same,FC Nr1d1 (1426464_PM_at),"spleen; spleen, 100MMF-vs-Veh, 12 h",−1.76
same,FC Nr1d2 (1416958_PM_at),"spleen; spleen, 100MMF-vs-Veh, 12 h",−1.53
same,FC Srxn1 (1419942_PM_at),"spleen; spleen, 100MMF-vs-Veh, 12 h",1.73
same,FC Srxn1 (1426875_PM_s_at),"spleen; spleen, 100MMF-vs-Veh, 12 h",1.75
same,Number of differentially expressed genes identified: Brain,brain; [5],158
same,Number of differentially expressed genes identified: Brain,brain; [6],0
